Laboratory results published in patent US20110269778A1, “NOVEL DIPHENYL PURINE DERIVATIVES USEFUL AS MODULATORS OF NICOTINIC ACETYLCHOLINE RECEPTORS” (NEUROSEARCH A/S, priority 2008, published 2011).

Experiments:
[1] = target: T1, wild-type nAChR α7 receptors (Homo sapiens, UniProt P36544); experiment: Positive modulation of wild-type nAChR α7 receptors expressed in Xenopus laevis oocytes, two-electrode voltage clamp; assay type: cell-based; settings: for Emax: maximal modulation of the control response to 100 μM acetylcholine, (test-control)/control×100%, from fitted concentration response curve, read-out: EC50 Imax; for EC50: positive modulation of current induced by 100 μM acetylcholine, oocytes clamped at −60 mV, test compound 0.01-31.6 μM applied 30 s before and during acetylcholine
T1 construct: expressed in transfected cells; host or cells: Xenopus laevis oocytes
T1 sequence (P36544 23-502): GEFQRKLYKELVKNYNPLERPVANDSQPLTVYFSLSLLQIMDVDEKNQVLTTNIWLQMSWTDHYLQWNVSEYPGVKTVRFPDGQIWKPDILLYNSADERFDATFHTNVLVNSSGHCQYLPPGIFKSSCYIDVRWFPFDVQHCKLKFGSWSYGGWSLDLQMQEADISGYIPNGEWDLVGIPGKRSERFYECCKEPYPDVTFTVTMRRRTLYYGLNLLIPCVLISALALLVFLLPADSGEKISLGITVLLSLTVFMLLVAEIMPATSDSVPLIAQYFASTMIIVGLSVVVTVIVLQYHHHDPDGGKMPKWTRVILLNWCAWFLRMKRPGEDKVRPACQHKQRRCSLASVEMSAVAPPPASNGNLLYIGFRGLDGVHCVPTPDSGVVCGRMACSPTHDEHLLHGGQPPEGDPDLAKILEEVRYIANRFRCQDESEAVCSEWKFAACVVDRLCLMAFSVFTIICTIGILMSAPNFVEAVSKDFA
Protocol: In this example the positive modulation of wild-type nAChR α7 receptors by the compounds of the invention was determined using nAChR α7 receptors heterologously expressed in Xenopus laevis oocytes.
The electrical current through the nAChR α7 channel was measured using conventional two-electrode voltage clamp and nAChR α7 currents were activated by applying pulses of agonist-containing solution onto the nAChR α7 expressing oocyte.
In brief, the oocytes were placed in a recording chambers and continuously super-fused with an Oocyte Ringer (OR) solution containing 90 mM NaCl, 2.5 mM KCl, 2.5 mM CaCl2, 1 mM MgCl2 and 5 mM HEPES (pH adjusted to 7.4). The oocytes were clamped at −60 mV and currents were induced by applying 20 s pulses of 100 μM acetylcholine dissolved in OR. The intervals between the acetylcholine applications were 5 minutes, during which the oocytes were washed with OR. The first three applications were control applications to insure a constant response level of 100 μM acetylcholine. For the subsequent test applications, increasing concentrations (0.01-31.6 μM) of the test compound were applied 30 s before and during the acetylcholine (100 μM) application, which caused a robust increase in the acetylcholine-induced current amplitude.
The positive modulation in the presence of Compound 4 was calculated as (test-control)/control×100% and the concentration response curve for this positive modulation was fitted to the sigmoidal logistic equation: I=Imax/(1+(EC50/[compound])^n), where Imax represents the maximal modulation of the control response, EC50 is the concentration causing a half maximal response, and n is the slope coefficient.

SMILES	Emax [1] [%]	EC50 [1] [µM]	melting point [°C]
COc1ccc(-n2cnc3c(-c4ccc(C(F)(F)F)cc4F)ncnc32)cc1 [Compound 1, 6-(2-Fluoro-4-trifluoromethyl-phenyl)-9-(4-methoxy-phenyl)-9H-purine]	45	1.2	181.4 to 182.8
Oc1ccc(-n2cnc3c(-c4ccc(C(F)(F)F)cc4F)ncnc32)cc1 [Compound 2, 4-[6-(2-Fluoro-4-trifluoromethyl-phenyl)-purin-9-yl]-phenol]	120	5.8	205.2 to 206.4
NS(=O)(=O)c1ccc(-n2cnc3c(-c4ccc(C(F)(F)F)cc4F)ncnc32)cc1 [Compound 3, 4-[6-(2-Fluoro-4-trifluoromethyl-phenyl)-purin-9-yl]-benzenesulfonamide]	44	9.5	243.8 to 245
COc1ccc(-n2c(=O)[nH]c3c(-c4ccc(C(F)(F)F)cc4F)ncnc32)cc1 [Compound 4, 6-(2-Fluoro-4-trifluoromethyl-phenyl)-9-(4-methoxy-phenyl)-7,9-dihydro-purin-8-one]	1.6	3.2	295.9 to 297.2
O=c1[nH]c2c(-c3ccc(C(F)(F)F)cc3F)ncnc2n1-c1ccc(O)cc1 [Compound 5, 6-(2-Fluoro-4-trifluoromethyl-phenyl)-9-(4-hydroxy-phenyl)-7,9-dihydro-purin-8-one]	82	33	276.4 to 277.9
COc1ccc(-n2nnc3c(-c4ccc(C(F)(F)F)cc4F)ncnc32)cc1 [Compound 6, 7-(2-Fluoro-4-trifluoromethyl-phenyl)-3-(4-methoxy-phenyl)-3H-[1,2,3]-triazolo[4,5-d]pyrimidine]	7.3	–	175.4 to 176.8
Oc1ccc(-n2nnc3c(-c4ccc(C(F)(F)F)cc4F)ncnc32)cc1 [Compound 7, 4-[7-(2-Fluoro-4-trifluoromethyl-phenyl)-[1,2,3]triazolo[4,5-d]pyrimidin-3-yl]-phenol]	28	5.9	210.2 to 211.8
